Tested on: HIV-specific polyfunctional CD8 T cells
Assay: Induced HIV-specific polyfunctional CD8+ T cells in PBMC cultures from HIV-1 infected subjects on cART
Format: cell-based, human
Details: for Median HIV-specific polyfunctional CD8 T cells (% proliferating CD8+ cells double positive for IFN-γ and TNF-α): 5 subjects, vehicle 0.73% (Example 15 group), 0.13% (Example 98 group)

CCCC[C@H](CO)Nc1nc(N)nc2cccnc12 [Example 15]
Patients in whom increases were seen (100 nM): 3 of 5 | Median HIV-specific polyfunctional CD8 T cells (% proliferating CD8+ cells double positive for IFN-γ and TNF-α) (100 nM with HIV peptide pool): 0.99% | Patients in whom increases were seen (1000 nM): 4 of 5 | Increase of median HIV-specific polyfunctional CD8 T cells (1000 nM combined with the HIV specific peptide pool, p<0.05): 2.7 fold | Median HIV-specific polyfunctional CD8 T cells (% proliferating CD8+ cells double positive for IFN-γ and TNF-α) (1000 nM with HIV peptide pool): 2.01%

— patent publication US20170071944A1, “MODULATORS OF TOLL-LIKE RECEPTORS FOR THE TREATMENT OF HIV” (Gilead Sciences, Inc., priority 2015, published 2017)
